Experimental data published in the OPERA property sets (Mansouri et al. 2018).

SMILES	boiling point	melting point	ready biodegradability	log10 vapour pressure (mmHg)	log10 biodegradation half-life (days)	log10 Henry constant (atm·m³/mol)	log10 Koc (L/kg)
CN(C)S(=O)N(C)C	209 °C	31 °C	–	–	–	–	–
CN(C)CCC(O)(c1ccccc1)c1ccccc1Cl (centres undefined)	–	120 °C	–	–	–	–	–
C=C1COC2(OCCCO2)OC1	–	–	not readily biodegradable	–	–	–	–
O=c1oc(=O)c2ccccc2c2ccccc12	–	217 °C	–	–	–	–	–
N#Cc1ccccc1O	–	98 °C	–	–	–	–	–
CN(CCO)CCO	247 °C	-21 °C	not readily biodegradable	-3.7	–	–	–
O=C(c1ccccc1)C(Cl)Cl	249 °C	20.5 °C	–	–	–	–	–
c1ccc(CN(Cc2ccccc2)Cc2ccccc2)cc1	385 °C	91.5 °C	–	–	–	–	–
OCC(CO)(CO)COCC(CO)(CO)CO	–	221 °C	not readily biodegradable	–	–	–	–
O=C(Cl)c1cccc(C(=O)Cl)c1	276 °C	43.5 °C	–	–	–	–	–
CCOCCN	108 °C	–	–	–	–	–	–
N#Cc1ccc2ccccc2c1	306 °C	66 °C	–	–	–	–	–
CCOC(=O)CCCCCBr	–	33 °C	–	–	–	–	–
O=C(c1ccccc1)c1ccc(Br)cc1	350 °C	82.5 °C	–	–	–	–	–
Cc1c(-c2ccccc2)[nH]c2ccccc12	–	91.5 °C	–	–	–	–	–
CCCCC(C)CC (centres undefined)	118 °C	-100 °C	–	1.29	0.477	–	–
c1ccc(Cc2ccccn2)cc1	277 °C	12.5 °C	–	–	–	–	–
CCCCC(=O)CC	147 °C	-39 °C	–	0.415	–	–	–
CCCCCCC(C)CCCCCC	–	-37.2 °C	–	–	–	–	–
O=Cc1ccc[nH]1	218 °C	46.5 °C	–	–	–	–	–
Cc1ccc(O)cn1	–	169 °C	–	–	–	–	–
CC(=O)NC(C)=O	224 °C	79 °C	–	-2	–	–	–
CNc1ccc(N)cc1	258 °C	36 °C	–	–	–	–	–

SMILES	boiling point	melting point	ready biodegradability	log10 vapour pressure (mmHg)	log10 biodegradation half-life (days)	log10 Henry constant (atm·m³/mol)	log10 Koc (L/kg)
CCc1ccc(-c2ccccc2)cc1	–	–	not readily biodegradable	–	–	–	–
CN1CC=C(c2ccccc2)CC1	–	40 °C	–	–	–	–	–
CC(CCO)CCO	–	–	readily biodegradable	–	–	–	–
CCn1cc(C(=O)O)c(=O)c2ccc(-c3ccncc3)cc21	–	290 °C	–	–	–	–	–
CCCCCCCOC(=O)CCCCC	261 °C	-34.4 °C	–	–	–	–	–
Clc1cc(-c2c(Cl)cc(Cl)c(Cl)c2Cl)c(Cl)c(Cl)c1Cl	–	–	–	–	–	-5	–
CC(=O)NS(=O)(=O)c1ccc(N)cc1	–	183 °C	–	–	–	–	–
CCCCOC(=O)c1ccccc1C(=O)O	–	73.5 °C	–	–	–	–	–
CCCCCCCCCCCCCCCCCCS	360 °C	30 °C	not readily biodegradable	-6.4	–	–	–
O=C(OC1CCCCC1)c1ccccc1	285 °C	–	–	–	–	–	–
Cc1ccccc1-c1ccccc1	256 °C	-0.2 °C	–	–	–	–	–
CC(C)C(C)(O)C(C)C	156 °C	–	–	–	–	–	–
COP(=O)(OC)OC(=CCl)c1cc(Cl)c(Cl)cc1Cl	–	96.3 °C	not readily biodegradable	-7.38	–	–	3.01
O=[N+]([O-])c1ccc(CCl)cc1	–	71 °C	not readily biodegradable	–	–	–	–
CCOC(=O)C(Br)CC (centres undefined)	177 °C	–	–	–	–	–	–
CC(=O)Oc1ccc(Br)cc1C(=O)O	–	60 °C	–	–	–	–	–
CC(C)N(CCC(C(N)=O)(c1ccccc1)c1ccccn1)C(C)C (centres undefined)	–	94.8 °C	–	–	–	–	–
O=C1C=C2C(=CCOC2O)O1 (centres undefined)	–	111 °C	–	–	–	–	–
CCOC=Nc1ccccc1	214 °C	–	–	–	–	–	–
S=C(Cl)Cl	73 °C	–	–	–	–	–	–
COc1ccc(/C=C/C(=O)Nc2ccccc2C(=O)O)cc1OC	–	212 °C	–	–	–	–	–
Nc1ccccn1	211 °C	57.5 °C	not readily biodegradable	–	–	–	–
COc1ccc(Cc2cnc(N)nc2N)cc1OC	–	233 °C	–	–	–	–	–

SMILES	boiling point	melting point	ready biodegradability	log10 vapour pressure (mmHg)	log10 biodegradation half-life (days)	log10 Henry constant (atm·m³/mol)	log10 Koc (L/kg)
COC(=O)c1ccccc1S(=O)(=O)NC(=O)Nc1nc(C)cc(C)n1	–	204 °C	–	–	–	–	1.62
CC(C)(C)C(=O)c1ccccc1	220 °C	–	–	–	–	–	–
CCOC(=O)C(C(C)=O)C(C)C (centres undefined)	201 °C	–	–	–	–	–	–
Nc1ccc(Br)cc1Br	–	79.5 °C	–	–	–	–	–
Clc1cccc2[nH]nnc12	–	–	–	–	–	–	1.98
Cc1ccc(N)cc1N	292 °C	99 °C	not readily biodegradable	-3.77	–	–	–
Cc1cccc(O)c1C	217 °C	72.8 °C	–	-1.05	–	-6.13	–
NNC(=O)c1ccc(N)cc1O	–	195 °C	–	–	–	–	–
CCCCCCCCCCCCCCCC(=O)[O-].[Na+]	–	286 °C	–	–	–	–	–
COc1c(Cl)cc(Cl)cc1Cl	241 °C	61.5 °C	–	–	–	–	–
O=C(O)CCCCCc1ccccc1	–	23 °C	–	–	–	–	–
Cn1cccn1	127 °C	–	–	–	–	–	–
FC(F)Br	-15.5 °C	-145 °C	–	–	–	–	–
CCOC(=O)c1ccc([N+](=O)[O-])cc1	186 °C	57 °C	–	–	–	–	2.48
Nc1ccc2ccccc2c1N=Nc1ccccc1	–	103 °C	–	–	–	–	–
ICCCCCCI	–	9.5 °C	–	–	–	–	–
CCCCCCCOC(=O)CCC	226 °C	-57.5 °C	–	–	–	–	–
COP(=S)(OC)Oc1ccc([N+](=O)[O-])cc1	–	35.5 °C	–	-5.46	–	-7	3
Cc1c(O)cc2c(c1C)OC(C)(CCCC(C)CCCC(C)CCCC(C)C)CC2 (centres undefined)	–	-3 °C	–	–	–	–	–
CCN(CC)CCC1(c2ccccc2)C(=O)Oc2ccccc21 (centres undefined)	–	43.4 °C	–	–	–	–	–
O=C(O)c1cccc2cccnc12	–	187 °C	–	–	–	–	–
CNC(=O)Oc1cccc(N=CN(C)C)c1	–	–	–	–	–	–	2.44
